Some results are limits rather than exact numbers.

For one data set, the target named is CDK6/Cyclin D1 (Homo sapiens (Human), UniProt Q00534). In words: CDK6/CyclinD1 enzymatic activity assay (TR-FRET). The class given is biochemical. Particulars: ATP 250 μM, read-out: CDK6_D1 IC50. In short, it runs like this: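 Insect-cell-expressed CDK6/Cyclin D1 (1 nM) phosphorylated ULight-4E-BP1 (100 nM) with 250 μM ATP in HEPES pH 7.4 buffer. After 20 min compound preincubation, reactions were started with 10 mM MgCl2 and run 60 min at 37 °C. EDTA-quenched samples were read by TR-FRET with Eu-anti-P-4E-BP1; IC50 from 9-dose 4-parameter fits.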
CDK6/Cyclin D1, sequence (Q00534 whole entry): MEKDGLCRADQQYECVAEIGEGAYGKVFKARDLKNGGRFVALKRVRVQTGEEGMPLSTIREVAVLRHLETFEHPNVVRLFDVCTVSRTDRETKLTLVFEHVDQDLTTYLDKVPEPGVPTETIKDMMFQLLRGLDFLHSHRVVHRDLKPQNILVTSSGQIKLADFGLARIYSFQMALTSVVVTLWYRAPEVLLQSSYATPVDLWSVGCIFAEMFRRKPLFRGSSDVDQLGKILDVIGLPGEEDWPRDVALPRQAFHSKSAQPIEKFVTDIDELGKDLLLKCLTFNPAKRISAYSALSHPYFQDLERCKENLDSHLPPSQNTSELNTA
CDK6/Cyclin D1, sequence (P24385 whole entry partner): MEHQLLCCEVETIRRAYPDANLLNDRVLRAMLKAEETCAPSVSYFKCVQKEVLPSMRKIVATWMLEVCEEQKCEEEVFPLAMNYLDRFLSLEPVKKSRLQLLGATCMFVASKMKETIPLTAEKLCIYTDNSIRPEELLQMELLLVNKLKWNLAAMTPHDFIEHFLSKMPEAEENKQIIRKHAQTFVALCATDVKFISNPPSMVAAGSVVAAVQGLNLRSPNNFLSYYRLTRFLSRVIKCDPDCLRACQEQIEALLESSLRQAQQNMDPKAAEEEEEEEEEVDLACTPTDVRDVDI
(In general: Time-resolved FRET reads energy transfer from a long-lived donor to a nearby acceptor.)

For the next data set, the target named is CDK4/Cyclin D1 (Homo sapiens (Human), UniProt P11802). In words: CDK4/CyclinD1 enzymatic activity assay (TR-FRET). In kind it is biochemical. Particulars: ATP 2 mM, read-out: CDK4_D1 IC50. The method in brief:
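Insect-cell CDK4/Cyclin D1 (1 nM) with ULight-4E-BP1 (100 nM) and 2 mM ATP in HEPES pH 7.4 buffer, preincubated 20 min with compound (9-dose, 3-fold dilutions); 10 mM MgCl2 started the reaction, run 60 min at 37 °C. EDTA/Eu-anti-phospho-4E-BP1 TR-FRET detection; IC50 from 4-parameter Hill fit.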

The test system of data set [1] is MCF7 adenocarcinoma cell line. In words: Cell proliferation studies in MCF7 cells (ATP-Lite, 10 days). Particulars: Homo sapiens, 240 h, read-out: PROLIFERATION_CTG_MCF7 IC50. The class given is cell-based. In short, it runs like this:
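Cells were seeded at 100 or 200 per well in DMEM with 10% FBS and dosed in quadruplicate over a 9-point 3-fold dilution. Incubation lasted 10 days at 37 °C, with media exchange and re-dosing on day 5. Viability was read by ATP-Lite luminescence and normalised to background and DMSO, giving IC50.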

Data set [2] can be described thus: Brain-to-plasma ratio (Kp) determination in Sprague-Dawley rats. Particulars: male, rat, brain (homogenate) versus plasma, po, 10 mg/kg.
Protocol: The brain-to-plasma ratio (Kp) was determined in male Sprague-Dawley rats (7-9 weeks old) four hours after a single oral dose. Rats were acclimated and given free access to standard rodent chow and water throughout the entire study. Test articles were formulated as a solution at 0.3, 0.4, 0.5, or 1.0 mg/mL in a vehicle comprised of 10:15:75 (v:v:v) dimethylacetamide (DMA):Solutol HS15:water and delivered orally at a rate of 10 mL/kg to three rats to achieve final doses of 3, 4, 5, or 10 mg/kg, respectively. At 4 hours post-dose, blood samples were collected via jugular vein cannula into tubes containing K2EDTA as the anticoagulant and stored on ice. Blood samples were then centrifuged at 4° C. at 6000 rpm for 5 minutes, and the resulting plasma was placed into tubes and stored frozen at −80° C. until analysis. Whole brain samples were also collected at 4 hours post-dose. The weight of each brain was measured and recorded, and samples were immediately stored on dry ice. Brain samples were then transferred to storage at −80° C. until analysis.
Prior to analysis, brain samples were combined with water (4 mL/1 gram of brain) and homogenized. Prior to injection, plasma and brain homogenate samples and standards were prepared for analysis by precipitation with acetonitrile or 1:1 (v:v) methanol:acetonitrile. Samples were then thoroughly mixed, centrifuged at 4000 rpm for 15 minutes, and the resulting supernatant was transferred for analysis. Test article concentrations in plasma and brain homogenate were then determined by LC-MS/MS and quantified against calibration standards prepared to known concentrations in matched blank (analyte-free) biological matrix. The Kp was then determined by dividing the dilution-corrected brain concentration by the plasma concentration from each rat. A brain density of 1 gram/mL was assumed for all calculations.

CDK4/Cyclin D1, sequence (P11802 whole entry): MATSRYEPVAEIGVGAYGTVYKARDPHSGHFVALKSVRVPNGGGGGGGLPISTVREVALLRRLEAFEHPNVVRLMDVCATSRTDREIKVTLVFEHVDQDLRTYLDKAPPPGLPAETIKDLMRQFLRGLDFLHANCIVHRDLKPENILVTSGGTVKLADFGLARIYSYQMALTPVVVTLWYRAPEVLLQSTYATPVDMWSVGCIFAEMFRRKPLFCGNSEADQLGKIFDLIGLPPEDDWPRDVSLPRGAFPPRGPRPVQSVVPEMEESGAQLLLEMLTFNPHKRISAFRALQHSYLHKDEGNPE
CDK4/Cyclin D1, sequence (P24385 whole entry partner): as the sequence (P24385 whole entry partner) above

On to `CCN1CC2(C1)CN(c1ccc(Nc3ncc(F)c(-c4cc5ncn(C(C)C)c5s4)n3)nc1)C2` [Example 129, N-(5-(6-ethyl-2,6-diazaspiro[3.3]heptan-2-yl)pyridin-2-yl)-5-fluoro-4-(3-isopropyl-3H-thieno[2,3-d]imidazol-5-yl)pyrimidin-2-amine], for which the IC50 (at CDK6/Cyclin D1; on CDK4/Cyclin D1; in data set [1]) was no more than 20 nM each time. The Kp at 4 h in data set [2] is 1 to 3.

On to `Cc1c(-c2nc(Nc3ccc(C4CCCN(C)C4)cn3)ncc2Cl)sc2c1ncn2C(C)C` (centres unmarked) [Example 130, 5-Chloro-4-(3-isopropyl-6-methyl-3H-thieno[2,3-d]imidazol-5-yl)-N-(5-(1-methylpiperidin-3-yl)pyridin-2-yl)pyrimidin-2-amine], for which the IC50 was 20 to 200 nM at CDK6/Cyclin D1, no more than 20 nM on CDK4/Cyclin D1 and 20 to 200 nM in data set [1]. For the same molecule, the concentration ratio (Kp) at 4 h in data set [2] is 1 to 3.

What is called Kp is tissue or fluid exposure divided by exposure in the circulation.

The values are drawn from US11685744B2, “CDK inhibitors and their use as pharmaceuticals” (Prelude Therapeutics, Incorporated, priority 2020, dated 2023).
